Experimental data taken from patent US20220088204A1, “ANTICANCER DRUGS AND METHODS OF MAKING AND USING SAME” (YALE UNIVERSITY, priority 2019, published 2022).
“Also recorded” adds a separate entry of the source.

Key:
[1] = system: PEO1 ovarian cancer cells; experiment: pH-dependent cell growth inhibition, transient treatment; type: cell-based; conditions: pH 7.4 vs pH 6.2
Procedure: FIG. 9 depicts pH-dependent cell growth inhibition of PEO1 ovarian cancer cells in culture, treated transiently with various prodrugs of the invention, as described above.
FIG. 10 depicts pH-dependent cell growth inhibition of PEO1 ovarian cancer cells in culture, treated transiently with an anticancer kinase inhibitor drug, Osimertinib, or a compound of the invention, based on an active core of that drug, YU253673.
(§1) In order to evaluate pH-dependent activity, treatments are performed at atypical cell culture conditions. […] Several cell lines have been evaluated using this method and for each, cell seeding density and treatment duration is independently experimentally determined. Each experiment is normalized to sham and complete activity controls for each pH condition.
Similar results have been obtained from pH-dependent cell growth inhibition assays with other classes of Drug using the prodrug approach.

[2] = Reductive activation / drug release in 5 mM GSH (simulated cytosol), LCMS; type: in vitro ADME; conditions: PBS containing 5 mM GSH, PBS pH 7.4, 5 mM GSH, 37° C., read-out: t1/2 of reduction of the disulfide
Procedure: In certain embodiments, the prodrug releases the active form of the drug once inside a cancer cell. Once inside the cell, drug release can be triggered by reduction of the disulfide bond in the linker. To evaluate the reductive activation of drug release, 50 μM YU241528 in a solution of PBS, pH 7.4, containing 5 mM GSH (a typical intracellular concentration of the predominant biological reducing agent) was incubated at 37° C. Aliquots were taken at regular intervals and analyzed by LCMS.

[3] = Blood levels after tail vein injection; type: in vivo, adult female balb/c mice
Procedure: Given that the drug's distribution and clearance can be expected to be substantially complete by about 6 hours after administration, in certain embodiments the peak intracellular dose is achieved long before this process might interfere to a significant degree, even assuming the altered metabolite is indeed compromised in its activity. […] In certain embodiments, the serum stability of YU241528 allows for effective therapy. […] In certain embodiments, the prodrug undergoes a different elimination path, as hepatobiliary elimination of weakly-ionic organic substances is sensitive to charge, size, and lipophilicity.

[4] = pKA of the ionizable group; type: physicochemical; conditions: read-out: acidic pKA of the carboxyl group
Description: The Henderson-Hasselbalch equation allows for calculating the neutral fraction of an ionizable drug at healthy tissue vs. tumor extracellular pH, and thus predicting the associated cell-permeable fractions. […] The carboxyl group of YU241528 has an acidic pKA of ˜4.4, so the predicted membrane permeable fraction is ˜8-fold less at a pH of 7.4 than at 6.5.

[5] = system: HeLa cells; experiment: pH-dependent cell uptake by flow cytometry; type: cell-based; conditions: HeLa cells in suspension, 5 μM, 1 hour, pH 7.4 vs pH 6.5
Description: FIGS. 5A-5B depict representative flow cytometry traces of pH-dependent cell treatments. […] Normalized cell counts (Y-axes) are plotted vs. doxorubicin fluorescence intensity per cell (X-axes).

[6] = Serum stability of prodrug in 20% mouse serum (LCMS, 490 nm); type: in vitro ADME; conditions: 37° C.
Procedure: FIG. 4A depicts liquid chromatography data showing the stability of YU241528 in serum.
The prodrug strategies of this invention are thought to impart their benefits during the distribution and cell uptake steps of anticancer therapy. In certain embodiments, a prodrug is stable in the blood for a period sufficient to allow for cell uptake and systemic clearance. To test this, 50 μM YU241528 in a solution of PBS, pH 7.4, containing 20% mouse serum was incubated at 37° C. At regular intervals, aliquots were taken and mixed with 2 volumes of ethanol to precipitate serum proteins, then centrifuged. Supernatants were analyzed by LCMS. […] The predominant peak was identified as YU241528 by mass spectrometry.

[7] = Body weight of treated tumor-bearing mice; type: in vivo, Balb/c mice; conditions: IV once daily for 5 days, mice with EMT-6 flank tumors
Description: FIG. 7 depicts representative in vivo study on the efficacy and toxicity of compounds of the invention. […] Mean tumor volume and mean body weight graphs are shown for groups of 10 tumor-bearing mice.

[8] = system: MDA-MB-231 breast cancer cells; experiment: pH-dependent cell growth inhibition, CellTiter-Glo; type: cell-based, Human; conditions: 6 hours treatment at pH 7.4 vs pH 6.2, 72 hours growth
Procedure: Cells treated for 6 hours at pH 7.4 (normal physiological pH, X traces) or pH 6.2 (acidic solid tumor pH, Y traces) were subsequently allowed to grow in normal growth medium for 72 hours, then cell viability was evaluated using the CellTiter-Glo assay kit (Promega). Normalized percent cell growth inhibition is plotted on the left side of each panel and IC50 values reported at each pH from non-linear regression analysis.
as §1
Human MDA-MB-231 breast cancer cells seeded at low density on tissue culture treated 384-well plates, allowed to adhere and grow in serum-supplemented growth medium for 24 hours, then treated under pH-controlled conditions for 6 hours, and finally washed and grown in fresh growth media for 72 hours were assessed for cell survival using the CellTiter-Glo assay system (Promega) (FIG. 6).

[9] = cited from earlier work

C=CC(=O)Nc1cc(Nc2nccc(-c3cn(C)c4ccccc34)n2)c(OC)cc1N(C)CCN(C)C [Osimertinib]
pH-dependent bias of cell growth inhibition [1]: slightly lower IC50 value at healthy pH 7.4

COc1cccc2c1C(=O)c1c(O)c3c(c(O)c1C2=O)C[C@@](O)(C(=O)CO)C[C@@H]3O[C@H]1C[C@H](NC(=O)OCCSSCc2ccc(C(=O)O)cc2)[C@H](O)[C@H](C)O1 [YU241528]
half-life at 50 μM [2]: ~2.7 min
level in the blood at 6 hours post injection ([3]; 6 hours): detectable levels
level in the blood at 24 hours post injection ([3]; 24 hours): undetectable
half-life ([3]; female, balb/c, mouse, blood, intravenous, read-out: non-compartmental half-life in blood (converted)): ~1 h
pKa [4]: ~4.4
pH preference of cell uptake [5]: preferentially taken up by cells at cancerous pH 6.5 versus cells at normal pH 7.4
release of free doxorubicin in serum ([6]; 50 μM, 20% mouse serum, over 6 hours of incubation): no active doxorubicin is released; also recorded: no free doxorubicin was detected
half-life at 50 μM ([6]; mouse, 20% mouse serum in PBS, pH 7.4, 50 μM, PBS pH 7.4, 20% mouse serum, read-out: t1/2 of interaction with serum): > 6 h

COc1cccc2c1C(=O)c1c(O)c3c(c(O)c1C2=O)C[C@@](O)(C(=O)CO)C[C@@H]3O[C@H]1C[C@H](NC(=O)OCCSSCCCCCCCC(=O)O)[C@H](O)[C@H](C)O1 [YU241531]
weight loss (mean body weight) compared to sham treated controls [7]: no detectable weight loss
pH-dependent bias of cell growth inhibition [8]: greater growth inhibition at acidic tumor pH

COc1cccc2c1C(=O)c1c(O)c3c(c(O)c1C2=O)C[C@@](O)(C(=O)CO)C[C@@H]3O[C@H]1C[C@H](NC(=O)OCCSSCCCc2c(F)c(F)c(O)c(F)c2F)[C@H](O)[C@H](C)O1 [YU244206]
weight loss (mean body weight) compared to sham treated controls [7]: no detectable weight loss
pH-dependent bias of cell growth inhibition [8]: greater growth inhibition at acidic tumor pH

COc1cccc2c1C(=O)c1c(O)c3c(c(O)c1C2=O)C[C@@](O)(C(=O)CO)C[C@@H]3O[C@H]1C[C@H](N)[C@H](O)[C@H](C)O1 [doxorubicin, reference compound]
basic pKA of the amine group [9]: ~8
pH preference of cell uptake [5]: greater uptake into cells at normal physiologic pH 7.4 than into cells at cancerous pH 6.5
pH-dependent bias of cell growth inhibition [8]: greater growth inhibition at basic healthy pH
